In patent publication US8048869B2, “Pharmaceutical composition for use in hormone replacement therapy” (Pantarhei Bioscience B.V., priority 2001, dated 2011):

Legend:
OVX-rats [1] = experiment: Indentation test of distal femur (bone biomechanical strength), OVX rat; type: in vivo; conditions: 4 weeks; for Energy / Maximum load / Stiffness / Ultimate strength: po, distal femur
Protocol: (§1) The ovariectomized aged rat was used as a model for the human disease osteoporosis. This is an established animal model, recommended by the United States Food and Drug Administration (FDA), to evaluate and assess potential agents for osteoporosis prevention and therapy. The anti-resorptive efficacy of estetrol (E4) was tested by ex vivo measuring total and trabecular bone mineral density and bone strength after 4 weeks of treatment at necropsy. 17α-ethinyl-estradiol (EE) and vehicle (1% ethanol/arachidis oil) served as controls in this bioassay.
(§2) Three months old female Sprague-Dawley rats were either sham-operated (Sham) or ovariectomized (OVX) one day prior to commencement of the dosing study. Animals were anesthetized using a ketamine/xylazine anesthetic mixture and underwent a bilateral ovariectomy or were sham-treated. A section of hair on the dorsal surface was shaved and an incision made overlying the lumbar region of the spine. The skin was separated from the underlying fascia so that a second incision could be made through the abdominal musculature approximately caudal to the kidneys. The ovaries were then exteriorized and removed and the musculature was closed with a single suture. The skin incision was closed using surgical staples.
(§3) Ten animals per treatment group were orally dosed once per day for four consecutive weeks. The dosing commenced 1 day after surgical removal of the ovaries and was administered by oral gavage using a syringe and stainless steel gavage needle at doses of 0.1 mg/kg /day EE, or either 2.5, 0.5 or 0.1 mg/kg/day E4. Vehicle control was daily administered to one group of OVX-animals and sham-operated rats. After treatment, anesthetized rats were subjected to cardiac puncture and asphyxiated by CO2 inhalation. Tibiae and femura were removed, cleaned of soft-tissue and fixed and stored in 70% ethanol/saline at 4° C. (tibia) or saline at 4° C. (femura) until fuirther analysis.
Ex vivo evaluation of bone biomechanical strength was performed with an indentation test at the distal femura. Prior to mechanical testing femura were rinsed in cold saline and carefully cleaned of any remaining adherent soft tissue. A 3-mm segment of the distal femoral metaphysis was cut directly proximal to the femoral condyle with a low-speed diamond saw under constant saline irrigation. The load was applied with a cylindrical indenter (with a flat testing face of 1.6 mm diameter) to the center of marrow cavity on the distal face of the segment. The indenter was allowed to penetrate the cavity at a constant displacement of 6 mm/min to a depth of 2 mm before load reversal.
The maximum load, stiffness and energy absorbed were determined from load displacement curves. Ultimate strength was calculated by dividing the maximum load by the indenter area. Furthermore, mean ultimate strength values are depicted in FIG. 2. […] Reductions in maximum load, stiffness, energy and ultimate strength were −68%, −68%, −27% and −68%, respectively, clearly accompanying the bone mineral density loss in estrogen deficient rats.

OVX-rats [2] = experiment: pQCT densitometry of proximal tibiae, ovariectomized aged rat osteoporosis model; type: in vivo; design: anti-resorptive activity compared with positive control EE: dose or concentration left out as unconfirmed; conditions: po, 4 weeks; for Mean Total Bone Mineral Area / Mean Total Bone Mineral Content / Mean Total Bone Mineral Density / Mean Trabecular Bone Mineral Area / Mean Trabecular Bone Mineral Content / Mean Trabecular Bone Mineral Density: proximal tibiae
Protocol: as §1, §2
as §3, with “The dosing commenced 1 day after surgical removal of the ovaries and was administered by oral gavage using a syringe and stainless steel gavage needle at doses of 0.1 mg/kg /day EE, or either 2.5, 0.5 or 0.1 mg/kg/day E4.” left out
Ex vivo peripheral Quantitative Computed Tomography (pQCT) was performed on the excised left tibiae using a Stratec XCT-RM and associated software (Stratec Medizintechnik GmbH, Pforzheim; Germany, software version 5.40). The scans were performed at 12% of the total length from the proximal end of the tibiae. The positions were verified using scout views and one 0.5-mm slice perpendicular to the long axis of the tibial shaft was acquired from each site. The scans were analyzed using a threshold for delineation of the external boundary. The total and trabecular bone mineral content, area and density at each site were determined. Furthermore, pQCT data for mean total bone mineral density are depicted in FIG. 1.

[3] = molecular target: T1, human sex Hormone Binding Globulin (SHBG) (Homo sapiens, UniProt P04278); experiment: Competitive steroid-binding assay, SHBG; conditions: [3H]DHT or [3H]estradiol as labeled ligands (FIG. 6)
T1 construct: Human SHBG was purified from transgenic mouse serum, as described previously; from tissue; host or cells: serum of mice transgenic for human SHBG
T1 sequence (P04278 30-402): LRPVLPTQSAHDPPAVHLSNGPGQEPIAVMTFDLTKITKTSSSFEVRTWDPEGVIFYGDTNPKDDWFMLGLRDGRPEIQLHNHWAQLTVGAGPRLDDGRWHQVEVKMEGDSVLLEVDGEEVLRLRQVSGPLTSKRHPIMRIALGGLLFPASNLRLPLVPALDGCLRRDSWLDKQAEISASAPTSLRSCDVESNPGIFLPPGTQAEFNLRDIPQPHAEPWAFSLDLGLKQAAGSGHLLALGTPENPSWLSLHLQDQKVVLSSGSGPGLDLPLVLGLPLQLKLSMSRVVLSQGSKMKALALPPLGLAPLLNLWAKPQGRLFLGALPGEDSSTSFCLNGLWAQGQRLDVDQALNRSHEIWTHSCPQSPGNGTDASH
Protocol: Human SHBG was treated for 30 min at room temperature with a dextran-coated charcoal (DCC) suspension in phosphate buffered saline (PBS) to remove any steroid ligand. After centrifugation (2,000×g for 10 min) to sediment the DCC, the supernatant containing the human SHBG was diluted in PBS to a concentration of 1 nM based on its steroid binding capacity.
After incubation for 1 h at room temperature the. reaction mixtures were placed in an ice bath for a further 15 muin. […] The average amounts of [^3H]labeled ligands bound to SHBG at each concentration of competitor (B) were expressed as a percentage of the average amounts of [^3H]labeled ligands bound to SHBG in the absence of competitor (B0), and were plotted against the concentration of competitor in each assay tube.

SMILES: C[C@]12CC[C@@H]3c4ccc(O)cc4CC[C@H]3[C@@H]1[C@@H](O)[C@@H](O)[C@@H]2O [E4, 1,3,5 (10)-estratrien-3,15α,16α,17β-tetrol]
- effect on declines in maximum load, stiffness, energy and ultimate strength (OVX-rats [1]; oral treatment, dose-dependent): prevented the declines in maximum load, stiffness, energy and ultimate strength
- Energy (OVX-rats [1]; 0.1 mg/kg/day): 0.09 mJ
- Maximum load (OVX-rats [1]; 0.1 mg/kg/day): 1.50 N
- Stiffness (OVX-rats [1]; 0.1 mg/kg/day): 28.00 N/mm
- Ultimate strength (OVX-rats [1]; 0.1 mg/kg/day): 0.80 N/mm2
- Energy (OVX-rats [1]; 0.5 mg/kg/day): 0.31 mJ
- Maximum load (OVX-rats [1]; 0.5 mg/kg/day): 7.25 N
- Stiffness (OVX-rats [1]; 0.5 mg/kg/day): 132.57 N/mm
- Ultimate strength (OVX-rats [1]; 0.5 mg/kg/day): 3.85 N/mm2
- Mean Total Bone Mineral Area (OVX-rats [2]; 0.1 mg/kg/day): 14.41 mm^2
- Mean Total Bone Mineral Content (OVX-rats [2]; 0.1 mg/kg/day): 8.46 mg/mm
- Mean Total Bone Mineral Density (OVX-rats [2]; 0.1 mg/kg/day): 588.62 mg/mL
- Mean Trabecular Bone Mineral Area (OVX-rats [2]; 0.1 mg/kg/day): 6.48 mm^2
- Mean Trabecular Bone Mineral Content (OVX-rats [2]; 0.1 mg/kg/day): 0.96 mg/mm
- Mean Trabecular Bone Mineral Density (OVX-rats [2]; 0.1 mg/kg/day): 145.46 mg/mL
- Mean Total Bone Mineral Area (OVX-rats [2]; 0.5 mg/kg/day): 14.80 mm^2
- Mean Total Bone Mineral Content (OVX-rats [2]; 0.5 mg/kg/day): 9.74 mg/mm
- Mean Total Bone Mineral Density (OVX-rats [2]; 0.5 mg/kg/day): 660.57 mg/mL
- Mean Trabecular Bone Mineral Area (OVX-rats [2]; 0.5 mg/kg/day): 6.65 mm^2
- Mean Trabecular Bone Mineral Content (OVX-rats [2]; 0.5 mg/kg/day): 1.60 mg/mm
- Mean Trabecular Bone Mineral Density (OVX-rats [2]; 0.5 mg/kg/day): 243.31 mg/mL
- anti-resorptive activity compared with positive control EE (OVX-rats [2]; highest dose): equivalent to the effect seen with the positive control EE
- relative binding affinity for human SHBG [3]: does not bind at all
